In patent publication US9656990B2, “Cathepsin cysteine protease inhibitors” (Merck Sharp & Dohme Corp., priority 2014, dated 2017):

Columns and labels:
human cathepsin K = human cathepsin K (UniProt P43236, Y175D/V274L, species not given); assay: Cathepsin K Assay; type: biochemical; conditions: IP from dose response curve; Z-Leu-Arg-AMC substrate, pH 5.5; read-out: hrbCat K (IP (nM))
human cathepsin F = target: T1, human cathepsin F (Homo sapiens, UniProt Q9UBX1); assay: Cathepsin F Assay; type: biochemical; conditions: IP from dose response curve; Z-Phe-Arg-AMC substrate, pH 5.5; read-out: hCat F (IP (nM))
T1 sequence (Q9UBX1 271-484): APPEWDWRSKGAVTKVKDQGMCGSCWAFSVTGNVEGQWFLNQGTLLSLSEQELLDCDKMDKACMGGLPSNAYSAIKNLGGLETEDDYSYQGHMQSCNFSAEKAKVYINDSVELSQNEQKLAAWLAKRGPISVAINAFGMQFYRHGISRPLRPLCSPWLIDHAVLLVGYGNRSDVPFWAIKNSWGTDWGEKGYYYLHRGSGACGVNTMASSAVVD
Method in brief: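 Human cathepsin F (10 nM) preincubated 15 min at room temperature with compounds in 50 mM MES pH 5.5, 2.5 mM EDTA, 2.5 mM DTT, 10% DMSO. Z-Phe-Arg-AMC (8 μM) added; AMC release read by fluorescence (Ex 360/Em 460 nm) over 20 min, inhibition fit to dose-response model.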

Row | Structure (SMILES) | IC50 (human cathepsin K) [nM] | IC50 (human cathepsin F) [nM]
1 | C[C@@H](C#N)NC(=O)[C@@H]1C[C@@H](F)CC[C@H]1c1nn(-c2ncccc2F)cc1-c1ccc(N2CCS(=N)(=O)CC2)cc1 [Example 57, (1R,2R,5S)-N-((S)-1-cyanoethyl)-5-fluoro-2-(1-(3-fluoropyridin-2-yl)-4-(4-(1-imino-1-oxidothiomorpholino)phenyl)-1H-pyrazol-3-yl)cyclohexanecarboxamide] | 8.3 | 7770
2 | CC(C#N)NC(=O)[C@@H]1CCC(F)(F)C[C@H]1c1nn(-c2ccc(F)cn2)cc1-c1ccc(N2CCS(=N)(=O)CC2)cc1 (single isomer, unassigned) [Example 23, (1R,2R)-N-((S or R)-1-cyanoethyl)-4,4-difluoro-2-(1-(5-fluoropyridin-2-yl)-4-(4-(1-imino-1-oxidothiomorpholino)phenyl)-1H-pyrazol-3-yl)cyclohexanecarboxamide] | 1.07 | 348
3 | N#Cc1cc(-n2cc(-c3ccc(N4CCS(=O)(=O)CC4)cc3)c([C@@H]3CCCC[C@H]3C(=O)NC3(C#N)CC3)n2)ccc1F [Example 110, (1R,2R)-2-(1-(3-cyano-4-fluorophenyl)-4-(4-(1,1-dioxidothiomorpholino)phen-yl)-1H-pyrazol-3-yl)-N-(1-cyanocyclopropyl)cyclohex-anecarboxamide] | 0.83 | 275
4 | CS(=O)(=O)c1ccc(-c2cn(-c3ccc4ccccc4c3)nc2C2CCC(F)(F)CC2C(=O)NCC#N)cc1 (racemic) [Example 78, (1R,2R and 1S,2S)-N-(cyanomethyl)-5,5-difluoro-2-(4-(4-(methylsulfonyl)phenyl)-1-(naphthalen-2-yl)-1H-pyrazol-3-yl)cyclohexanecarboxamide] | 2.12 | 4
5 | N#CC1(NC(=O)[C@@H]2CCCC[C@H]2c2nn(-c3ccc(F)cc3)cc2-c2ccc(C3CN(C(=O)NCC(F)(F)F)C3)cc2)CC1 [Example 136, 3-(4-(3-((1R,2R)-2-((1-cyanocyclopropyl)carbamoyl)cyclohexyl)-1-(4-fluorophenyl)-1H-pyrazol-4-yl)phenyl)-N-(2,2,2-trifluoroethyl)azetidine-1-carboxamide] | 0.97 | 83
6 | N#CC1(NC(=O)[C@@H]2CCCC[C@H]2c2nn(-c3cccc(Cl)c3)cc2-c2ccc(N3CCS(=O)(=O)CC3)cc2)CC1 [Example 99, (1R,2R)-2-(1-(3-chlorophenyl)-4-(4-(1,1-dioxidothiomorpholino)phen-yl)-1H-pyrazol-3-yl)-N-(1-cyanocyclopropyl)cyclohex-anecarboxamide] | 0.48 | 379
7 | N#CC1(NC(=O)[C@@H]2CC(F)(F)CC[C@H]2c2nn(-c3ccc(F)cc3)c(CO)c2-c2ccc(N3CCS(=O)(=O)CC3)cc2)CC1 [Example 11, (1R,2R)—N-(1-Cyanocyclopropyl)-2-(4-(4-(1,1-dioxidothiomorpholino)phenyl)-1-(4-fluorophenyl)-5-(hydroxymethyl)-1H-pyrazol-3-yl)-5,5-difluorocyclohexanecarboxamide] | 1.41 | 125
8 | Cc1ccc(-n2cc(-c3ccc(N4CCS(=O)(=O)CC4)cc3)c([C@@H]3CCCC[C@H]3C(=O)NC3(C#N)CC3)n2)cn1 [Example 167, (1R,2R)-N-(1-cyanocyclopropyl)-2-(4-(4-(1,1-dioxidothiomorpholino)phen-yl)-1-(6-methylpyridin-3-yl)-1H-pyrazol-3-yl)cyclohexanecarboxamide] | 0.66 | 602
9 | N#CCNC(=O)C1CC(F)(F)CCC1c1nn(-c2ccc(F)cc2)cc1-c1ccc(N2CCS(=O)(=O)CC2)cc1 (racemic) [Example 79, (1R,2R and 1S,2S)-N-(cyanomethyl)-2-(4-(4-(1,1-dioxidothiomorpholino)phen-yl)-1-(4-fluorophenyl)-1H-pyrazol-3-yl)-5,5-difluorocyclohexanecarbox-amide] | 0.81 | 17
10 | COc1cccc(-n2cc(-c3ccc(N4CCS(=O)(=O)CC4)cc3)c([C@@H]3CCCC[C@H]3C(=O)NC3(C#N)CC3)n2)c1 [Example 2, (1R,2R)—N-(1-Cyanocyclopropyl)-2-(4-(4-(1,1-dioxidothiomorpholino)phenyl)-1-(3-methoxyphenyl)-1H-pyrazol-3-yl)cyclohexanecarboxamide] | 0.99 | 494
11 | CNC(=O)N1CC(c2ccc(-c3cn(-c4ccc(F)cc4)nc3[C@@H]3CCCC[C@H]3C(=O)NC3(C#N)CC3)cc2)C1 [Example 135, 3-(4-(3-((1R,2R)-2-((1-cyanocyclopropyl)carbamoyl)cyclohexyl)-1-(4-fluorophenyl)-1H-pyrazol-4-yl)phenyl)-N-methylazetidine-1-carboxamide] | 0.71 | 64
12 | N#CC1(NC(=O)[C@@H]2CC(F)(F)CC[C@H]2c2nn(-c3ccc(F)cn3)c(CO)c2-c2ccc(N3CCS(=O)(=O)CC3)cc2)CC1 [Example 70, (1R,2R)-N-(1-cyanocyclopropyl)-2-(4-(4-(1,1-dioxidothiomorpholino)phen-yl)-1-(5-fluoropyridin-2-yl)-5-(hydroxymethyl)-1H-pyrazol-3-yl)-5,5-difluorocyclohexanecarbox-amide] | 1.9 | 185
13 | CC(C)[C@@H](C#N)NC(=O)[C@@H]1CC(F)(F)CC[C@H]1c1nn(-c2ccc(F)cc2)c(CO)c1-c1ccc(N2CCS(=O)(=O)CC2)cc1 [Example 63, (1R,2R)-N-((S)-1-cyano-2-methylpropyl)-2-(4-(4-(1,1-dioxidothiomorpholino)phen-yl)-1-(4-fluorophenyl)-5-(hydroxymethyl)-1H-pyrazol-3-yl)-5,5-difluorocyclohexanecarbox-amide] | 1.98 | 98
14 | N#CC1(NC(=O)[C@@H]2CCC(F)(F)C[C@H]2c2nn(-c3ncccc3F)cc2-c2ccc(N3CCS(=O)(=O)CC3)cc2)CC1 [Example 33, (1R,2R)-N-(1-cyanocyclopropyl)-2-(4-(4-(1,1-dioxidothiomorpholino)phen-yl)-1-(3-fluoropyridin-2-yl)-1H-pyrazol-3-yl)-4,4-difluorocyclohexanecarbox-amide] | 13.6 | 9540
15 | CC(C)[C@@H](C#N)NC(=O)[C@@H]1CC(F)(F)CC[C@H]1c1nn2ccccc2c1-c1ccc(N2CCS(=O)(=O)CC2)cc1 [Example 73, (1R,2R)-N-((S)-1-cyano-2-methylpropyl)-2-(3-(4-(1,1-dioxidothiomorpholino)phen-yl)pyrazolo[1,5-a]pyridin-2-yl)-5,5-difluorocyclohexanecarbox-amide] | 5.19 | 269
16 | CN=S1(=O)CCN(c2ccc(-c3c([C@@H]4CCCC[C@H]4C(=O)NC4(C#N)CC4)nn(-c4ncccc4F)c3C)cc2)CC1 [Example 44, (1R,2R)-N-(1-cyanocyclopropyl)-2-(1-(3-fluoropyridin-2-yl)-5-methyl-4-(4-(1-(methylimino)-1-oxidothiomorpholino)phenyl)-1H-pyrazol-3-yl)cyclohexanecarboxamide] | 13.9 | 8840
17 | N#CC1(NC(=O)[C@@H]2CC3CC3C[C@H]2c2nn(-c3ccc(F)cn3)cc2-c2ccc(N3CCS(=O)(=O)CC3)cc2)CC1 (single isomer, unassigned) [Example 152, (1S,3R,4R,6R) or (1R,3R,4R,6S)-N-(1-cyanocyclopropyl)-4-(4-(4-(1,1-dioxidothiomorpholino)phen-yl)-1-(5-fluoropyridin-2-yl)-1H-pyrazol-3-yl)bicyclo[4.1.0]heptane-3-carboxamide] | 1.06 | 338
